# Tested on: 292921-168-R-J2-PDC KRAS tumor spheroid viability
# Test: Anticancer human tumor 292921-168-R-J2-PDC patient-derived pancreatic carcinoma cell line growth inhibition [KRAS2]
# Conditions: spheroids with HUVEC and MSC; for viability, T/C: stronger effect = lower value
# How it was run: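 Combination screen of spheroid viability in tumor-cell co-cultures with endothelial (HUVEC) and mesenchymal stem cell stroma. Each agent was tested in half-log dilutions, topping at clinical Cmax or at 10 microM without a known Cmax.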
# [1] = curve of first compound, second compound 0.1 µM
# [2] = curve of first compound, second compound 0.316 µM
# [3] = curve of first compound, second compound 1 µM
# [4] = curve of first compound, second compound 3.16 µM
# [5] = curve of first compound, second compound 10 µM
# [6] = second compound 0.1 µM, first compound 0.0316 µM
# [7] = second compound 0.1 µM, first compound 0.1 µM
# [8] = second compound 0.1 µM, first compound 0.316 µM
# [9] = second compound 0.1 µM, first compound 1 µM
# [10] = second compound 0.1 µM, first compound 3.16 µM
# [11] = second compound 0.1 µM, first compound 10 µM
# [12] = second compound 0.316 µM, first compound 0.0316 µM
# [13] = second compound 0.316 µM, first compound 0.1 µM
# [14] = second compound 0.316 µM, first compound 0.316 µM
# [15] = second compound 0.316 µM, first compound 1 µM
# [16] = second compound 0.316 µM, first compound 3.16 µM
# [17] = second compound 0.316 µM, first compound 10 µM
# [18] = second compound 1 µM, first compound 0.0316 µM
# [19] = second compound 1 µM, first compound 0.1 µM
# [20] = second compound 1 µM, first compound 0.316 µM
# [21] = second compound 1 µM, first compound 1 µM
# [22] = second compound 1 µM, first compound 3.16 µM
# [23] = second compound 1 µM, first compound 10 µM
# [24] = second compound 3.16 µM, first compound 0.0316 µM
# [25] = second compound 3.16 µM, first compound 0.1 µM
# [26] = second compound 3.16 µM, first compound 0.316 µM
# [27] = second compound 3.16 µM, first compound 1 µM
# [28] = second compound 3.16 µM, first compound 3.16 µM
# [29] = second compound 3.16 µM, first compound 10 µM
# [30] = second compound 10 µM, first compound 0.0316 µM
# [31] = second compound 10 µM, first compound 0.1 µM
# 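Note: drug exposure lasted seven days after spheroids formed for three days.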
# 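Throughout, for viability, T/C: percent of DMSO vehicle control viability which is 100%.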
compound,measurement,setting,value
COC(=O)c1ccc2c(C(=Nc3ccc(N(C)C(=O)CN4CCN(C)CC4)cc3)c3ccccc3)c(O)[nH]c2c1 + C=CC(=O)N1CCN(c2nc(=O)n(-c3c(C)ccnc3C(C)C)c3nc(-c4c(O)cccc4F)c(F)cc23)C(C)C1,IC50,[1],< 31.6 nM
same,IC50,[2],< 31.6 nM
same,IC50,[3],58.8 nM
same,IC50,[4],41.8 nM
same,IC50,[5],< 31.6 nM
same,"viability, T/C",[6],44.2%
same,"viability, T/C",[7],39.2%
same,"viability, T/C",[8],30.9%
same,"viability, T/C",[9],18.8%
same,"viability, T/C",[10],11.9%
same,"viability, T/C",[11],0.29%
same,"viability, T/C",[12],48.4%
same,"viability, T/C",[13],40.6%
same,"viability, T/C",[14],25.3%
same,"viability, T/C",[15],20.1%
same,"viability, T/C",[16],5.83%
same,"viability, T/C",[17],0.17%
same,"viability, T/C",[18],56.8%
same,"viability, T/C",[19],43.7%
same,"viability, T/C",[20],29.2%
same,"viability, T/C",[21],15.8%
same,"viability, T/C",[22],2.31%
same,"viability, T/C",[23],0.19%
same,"viability, T/C",[24],52.8%
same,"viability, T/C",[25],41.5%
same,"viability, T/C",[26],25.7%
same,"viability, T/C",[27],16.9%
same,"viability, T/C",[28],2.53%
same,"viability, T/C",[29],0.13%
same,"viability, T/C",[30],38.1%
same,"viability, T/C",[31],36.4%
same,"viability, T/C","second compound 10 µM, first compound 0.316 µM",24.8%
same,"viability, T/C","second compound 10 µM, first compound 1 µM",19.2%
same,"viability, T/C","second compound 10 µM, first compound 3.16 µM",3.45%
same,"viability, T/C","second compound 10 µM, first compound 10 µM",0.21%
CC(C)n1nc(-c2ccc3oc(N)nc3c2)c2c(N)ncnc21 + COc1cc2nc(C)nc(NC(C)c3cc(N)cc(C(F)(F)F)c3)c2cc1OC1CCOC1,IC50,[1],3.29 nM
same,IC50,[2],3.94 nM
same,IC50,[3],2.72 nM
same,IC50,[4],1.34 nM
same,IC50,[5],< 0.316 nM
same,"viability, T/C","second compound 0.1 µM, first compound 0.000316 µM",35%
same,"viability, T/C","second compound 0.1 µM, first compound 0.001 µM",74.8%
same,"viability, T/C","second compound 0.1 µM, first compound 0.00316 µM",46.2%
same,"viability, T/C","second compound 0.1 µM, first compound 0.01 µM",38.8%
same,"viability, T/C",[6],28.1%
same,"viability, T/C",[7],26.2%
same,"viability, T/C","second compound 0.316 µM, first compound 0.000316 µM",88%
same,"viability, T/C","second compound 0.316 µM, first compound 0.001 µM",73.2%
same,"viability, T/C","second compound 0.316 µM, first compound 0.00316 µM",53.6%
same,"viability, T/C","second compound 0.316 µM, first compound 0.01 µM",35.7%
same,"viability, T/C",[12],29.4%
same,"viability, T/C",[13],24.1%
same,"viability, T/C","second compound 1 µM, first compound 0.000316 µM",81.1%
same,"viability, T/C","second compound 1 µM, first compound 0.001 µM",68.9%
same,"viability, T/C","second compound 1 µM, first compound 0.00316 µM",47%
same,"viability, T/C","second compound 1 µM, first compound 0.01 µM",30.5%
same,"viability, T/C",[18],23.7%
same,"viability, T/C",[19],21.2%
same,"viability, T/C","second compound 3.16 µM, first compound 0.000316 µM",64.9%
same,"viability, T/C","second compound 3.16 µM, first compound 0.001 µM",54.2%
same,"viability, T/C","second compound 3.16 µM, first compound 0.00316 µM",37.8%
same,"viability, T/C","second compound 3.16 µM, first compound 0.01 µM",26.3%
same,"viability, T/C",[24],23.8%
same,"viability, T/C",[25],20.6%
same,"viability, T/C","second compound 10 µM, first compound 0.000316 µM",32.7%
same,"viability, T/C","second compound 10 µM, first compound 0.001 µM",26.4%
same,"viability, T/C","second compound 10 µM, first compound 0.00316 µM",24.3%
same,"viability, T/C","second compound 10 µM, first compound 0.01 µM",17.7%
same,"viability, T/C",[30],16.7%
same,"viability, T/C",[31],15.5%
Cn1nccc1Nc1nccc(-c2cc3c(s2)C(C)(C)N(CCN2CCOCC2)C3=O)n1 + C=CC(=O)N1CCN(c2nc(OCC3CCCN3C)nc3c2CCN(c2cccc4cccc(C)c24)C3)CC1CC#N,IC50,"curve of first compound, second compound 0.0316 µM",93.1 nM
same,IC50,[1],77.8 nM
same,IC50,[2],59 nM
same,IC50,[3],< 31.6 nM
same,IC50,[4],< 31.6 nM
same,"viability, T/C","second compound 0.0316 µM, first compound 0.0316 µM",86.7%
same,"viability, T/C","second compound 0.0316 µM, first compound 0.1 µM",47.5%
same,"viability, T/C","second compound 0.0316 µM, first compound 0.316 µM",20.6%
same,"viability, T/C","second compound 0.0316 µM, first compound 1 µM",13%
same,"viability, T/C","second compound 0.0316 µM, first compound 3.16 µM",11.6%
same,"viability, T/C","second compound 0.0316 µM, first compound 10 µM",11.9%
same,"viability, T/C",[6],80.2%
same,"viability, T/C",[7],41.4%
same,"viability, T/C",[8],21.6%
same,"viability, T/C",[9],12.5%
same,"viability, T/C",[10],11.1%
same,"viability, T/C",[11],11.6%
same,"viability, T/C",[12],63.5%
same,"viability, T/C",[13],38.6%
same,"viability, T/C",[14],16.2%
same,"viability, T/C",[15],12.2%
same,"viability, T/C",[16],9.88%
same,"viability, T/C",[17],11.9%
same,"viability, T/C",[18],30.9%
same,"viability, T/C",[19],18.4%
same,"viability, T/C",[20],8.49%
same,"viability, T/C",[21],8.54%
same,"viability, T/C",[22],7.25%
same,"viability, T/C",[23],8.46%
same,"viability, T/C",[24],0.45%
same,"viability, T/C",[25],0.11%
same,"viability, T/C",[26],0.11%
same,"viability, T/C",[27],0.1%
same,"viability, T/C",[28],0.1%
same,"viability, T/C",[29],0.16%
CC1(C)CCC(CN2CCN(c3ccc(C(=O)NS(=O)(=O)c4ccc(NCC5CCOCC5)c([N+](=O)[O-])c4)c(Oc4cnc5[nH]ccc5c4)c3)CC2)=C(c2ccc(Cl)cc2)C1,"viability, T/C",compound 0.0316 µM,102% [middle of 5 runs]
same,"viability, T/C",compound 0.1 µM,98.2% [middle of 5 runs]
same,"viability, T/C",compound 0.316 µM,95.9% [middle of 5 runs]
same,"viability, T/C",compound 1 µM,100% [middle of 5 runs]
same,"viability, T/C",compound 3.16 µM,27.2% [middle of 5 runs]
same,"viability, T/C",compound 10 µM,10.3% [middle of 5 runs]
same,IC50,curve of compound,2.17 µM [middle of 4 runs]

# From PubChem BioAssay AID1963870 (Molecular Pharmacology Branch, DTP, NCI, 2024)
